Earlier results on seven compounds are cited in patent publication US6759200B1, “Thymidine phosphorylase gene sequence variances having utility in determining the treatment of disease” (Nuvelo, Inc., priority 1998, dated 2004).

For data set [1] the following is noted: up to; depending on the regimen.
The test system of data set [2] is advanced colorectal cancer.
Data set [3] addresses T1, dihydropyrimidine dehydrogenase (DPD) (Homo sapiens, UniProt Q12882).
T1 construct: host or cells: human subjects in vivo (endogenous enzyme)
T1 sequence (Q12882 4-1025): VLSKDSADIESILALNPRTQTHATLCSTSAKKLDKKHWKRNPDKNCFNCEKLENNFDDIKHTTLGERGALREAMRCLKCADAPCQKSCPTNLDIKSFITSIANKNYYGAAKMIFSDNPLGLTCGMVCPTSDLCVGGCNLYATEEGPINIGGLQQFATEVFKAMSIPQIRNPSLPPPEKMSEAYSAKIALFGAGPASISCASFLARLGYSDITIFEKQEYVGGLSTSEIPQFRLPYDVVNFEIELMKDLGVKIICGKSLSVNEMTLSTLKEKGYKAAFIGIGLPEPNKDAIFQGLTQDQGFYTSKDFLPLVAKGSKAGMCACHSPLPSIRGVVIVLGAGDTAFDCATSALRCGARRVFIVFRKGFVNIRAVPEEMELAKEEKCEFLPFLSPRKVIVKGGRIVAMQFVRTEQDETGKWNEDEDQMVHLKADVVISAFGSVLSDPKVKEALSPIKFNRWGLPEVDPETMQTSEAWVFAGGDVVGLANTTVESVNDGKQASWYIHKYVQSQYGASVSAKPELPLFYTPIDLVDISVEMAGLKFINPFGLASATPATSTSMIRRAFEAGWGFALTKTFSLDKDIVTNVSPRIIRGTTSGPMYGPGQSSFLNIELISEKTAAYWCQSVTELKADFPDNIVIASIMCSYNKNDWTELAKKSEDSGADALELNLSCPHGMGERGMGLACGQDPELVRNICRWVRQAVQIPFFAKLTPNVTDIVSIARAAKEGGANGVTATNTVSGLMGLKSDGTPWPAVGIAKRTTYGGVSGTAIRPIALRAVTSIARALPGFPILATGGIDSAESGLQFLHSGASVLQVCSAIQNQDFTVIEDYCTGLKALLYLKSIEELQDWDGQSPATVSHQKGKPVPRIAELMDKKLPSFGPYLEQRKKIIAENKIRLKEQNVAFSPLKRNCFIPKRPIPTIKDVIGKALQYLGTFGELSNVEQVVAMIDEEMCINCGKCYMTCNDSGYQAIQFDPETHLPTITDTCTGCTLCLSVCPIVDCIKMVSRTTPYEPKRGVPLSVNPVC

The next data set concerns Alzheimer's disease. As to conditions: PDR.
Another data set concerns nucleoside transport. As to conditions: nucleoside transport inhibitor paired with 5-FU and FA; Kohne et al. 1995.
[4] abbreviates: people genetically deficient in DPD, Diasio et al. 1988.
Setting [5] is: Alzheimer's patients receiving Cognex.

Counter-ions that a name gives are not always drawn. Like-named read-outs stand apart in the source and are kept apart here.

For `O=c1[nH]cc(F)c(=O)[nH]1` [5-FU, 5-fluorouracil], the “dose excreted unchanged in the urine” value was 10% (normal individuals) and 90% under setting [4]. Further, the elimination half life (normal individuals) is 0.167 to 0.25 h and the elimination half life under setting [4] was 2.5 h. Also, the “patients suffering serious gastrointestinal or hematopoietic toxicity” value in data set [1] is given as 20-30%. Further, the partial remissions in data set [2] (5-FU alone, advanced colorectal cancers) is on record as 10-30%. In addition, the “patients with an objective response” value in data set [2] (advanced colorectal cancer) is on record as 20-40%. For the same compound, in data set [2] (advanced colorectal cancer, of the objective responders), the “patients with a complete response (complete tumor disappearance)” value is 1-5%. For the same compound, the “dose of 5-FU transformed (catabolized) by DPD to the inactive dihydrofluorouracil form” value in data set [3] (in vivo) is “more than 80%”. For the same compound, the “injected dose rapidly inactivated by DPD to therapeutically inactive catabolic products” value in data set [3] (injected dose) is given as “More than 85%”.

On to `Nc1c2c(nc3ccccc13)CCCC2` [Cognex, tacrine hydrochloride], for which the “patients showing no change or minimal worsening of their disease” value with Alzheimer's disease (Alzheimer's disease patients receiving Cognex) is listed as “about 45%”. For the same compound, in the data set on Alzheimer's disease (setting [5]), the patients minimally improved entry was “About 58%” and the patients much improved result was “about 2%”.

With `O=c1ccn([C@@H]2O[C@H](COP(=O)(O)OP(=O)(O)OP(=O)(O)O)[C@@H](O)[C@H]2O)c(=O)[nH]1` [Uridine triphosphate], in the data set with cultured glial cells, the “release of thromboxane A2” value was “concentration-dependent increases”.

With `Nc1ccn([C@@H]2O[C@H](COP(=O)(O)OP(=O)(O)OP(=O)(O)O)[C@@H](O)[C@H]2O)c(=O)n1` [cytidine triphosphate], in the data set with cultured glial cells, the “release of thromboxane A2” value was “concentration-dependent increases”.

Regarding `Cc1cn([C@H]2C[C@H](O)[C@@H](COP(=O)(O)OP(=O)(O)OP(=O)(O)O)O2)c(=O)[nH]c1=O` [deoxythymidine triphosphate], the “release of thromboxane A2” value with cultured glial cells was “concentration-dependent increases”.

Regarding `OCCN(CCO)c1nc(N2CCCCC2)c2nc(N(CCO)CCO)nc(N3CCCCC3)c2n1` [dipyridamole], in the data set with nucleoside transport, the “outcome compared to 5-FU/FA alone” value is on record as “failed to show a difference in outcome”.

`O=c1ccn([C@@H]2O[C@H](COP(=O)(O)OP(=O)(O)O)[C@@H](O)[C@H]2O)c(=O)[nH]1` [uridine diphosphate]: the “release of thromboxane A2” value in the data set with cultured glial cells is listed as “concentration-dependent increases”.
